Experimental findings from article PMC9182012, “Aza-Oxa-Triazole Based Macrocycles with Tunable Properties: Design, Synthesis, and Bioactivity” (Molecules, 2022) are described below.

The target of series [1] is bovine serum albumin (BSA) (Bos taurus, UniProt P02769). Description: Protein interaction by fluorescence quenching, Stern–Volmer binding constant. Particulars: for Extent of binding with BSA, in words: fluorescence quenching, 10 µM BSA, pH 7.4, 25 °C; for Binding Constant, BSA: slope of Stern–Volmer plot (Io/I vs macrocycle concentration), 10 µM BSA in phosphate buffer pH 7.4, 2–100 µM macrocycle from 2 mM DMSO stock, 25 °C, excitation 280 nm, 3 min equilibration. On the procedure:
(§1) All the fluorescence spectra were recorded on a Perkin Elmer (Waltham, MA, USA) FL 6500 at 25 °C. The excitation wavelength of 280 nm and a slit width of 5 nm were used for excitation and emission. Next, 6.6 mg of BSA/HSA was dissolved in 10 mL of pH 7.4 phosphate buffer to make 10 μM BSA/HSA. The stock solutions of macrocycles were of 2 mM concentration dissolved in DMSO. The titrations were carried out in varied concentrations of macrocycles from 2 μM to 100 μM. Three minutes were given as the equilibration time after the addition of the solution. The Stern–Volmer plot was used to calculate the binding constant (slope) by plotting Io/I vs. the macrocycle concentration.
(§2) Figure 4 Fluorescence quenching of protein by MC7 at excitation wavelength 280 nm, (a) BSA and (b) HSA. To 10 µM protein solution in phosphate buffer (pH 7.4), 2–100 µM macrocycle solution was added at 25 °C. Inset: Stern–Volmer Plot; Io and I are the fluorescence intensity at 0 µM and the given concentration of the macrocycle, and the slope is considered as the binding constant. […]
(§3) 8.2 Fluorescence spectroscopy for protein interaction studies
(§4) 8.2.1 Experimental Procedure
(§5) 10 μM BSA was prepared by dissolving 6.6 mg of BSA in 10 mL of phosphate buffer of pH
(§6) 7.4. The macrocycles were dissolved in DMSO to make the stock solution of 2 mM concentration. 2 mL of the BSA control solution was taken in the fluorescence cuvette to take the emission at zero concentration of the compound. The titration was carried out by varying the concentration of macrocycle from 2 μM to 100 μM. An equilibration time of 3 minutes is given for each measurement after the addition of the solution. Binding constant were estimated from the Stern-Volmer plot by plotting I o/I vs concentration of the macrocycle. The slope of the graph was attributed as the binding constant.

The target in series [2] is human serum albumin (HSA) (Homo sapiens, UniProt P02768). The description is as above. To be noted: for Binding Constant, HSA: slope of Stern–Volmer plot (Io/I vs macrocycle concentration), 10 µM HSA in phosphate buffer pH 7.4, 2–100 µM macrocycle from 2 mM DMSO stock, 25 °C, excitation 280 nm, 3 min equilibration; for Extent of interaction with HSA, in words: fluorescence quenching, 10 µM HSA, pH 7.4, 25 °C. The procedure:
as §1, §2, §3, §4, §5, §6

Series [3] can be described thus: RP-HPLC retention time as measure of hydrophilicity/hydrophobicity. It counts as physicochemical. To be noted: chromatographic, C18; acetonitrile and water with 0.1% formic acid, 5–95 % acetonitrile over 15 min; higher retention time = more hydrophobic. From the text:
The bulk properties of the macrocycles depend on the functional groups on the side chain and backbone and the ring size. The platform for the tunability in the macrocyclic scaffold aided in the synthesis of molecules with a wide range of properties. The hydrophilicity/hydrophobicity of the macrocycles is an important property, primarily for biological applications. The tunable property of the synthesized macrocycles is attributed to the different retention times in the reverse-phase high-performance liquid chromatogram (RP-HPLC). Hydrophilic compounds elute first through the column, thus lowering the retention time, whereas a higher retention time corresponds to the comparatively hydrophobic compounds. From Figure 3a, it could be inferred that the macrocycles MC1–5 and MC7 are hydrophilic, whereas MC8 and MC6 are hydrophobic, as depicted by the higher retention times. The higher hydrophobicity is due to the aromatic rings, two benzyl groups in MC6 and a naphthyl group in MC8. Another property achieved by one of the macrocycles is the addition of fluorophoric group as the side chain. The resultant fluorescence could be exploited for various photophysical applications, including the development of fluorimetric sensors (Figure 3b).
A Shimadzu (Kyoto, Japan) LC-MS-8045 with a Sprite TARGA C18 column (40 × 2.1 mm, 5 µm) was used for the LC-MS analysis. The spectra were monitored at 254 nm and 210 nm with a positive mode for mass detection. Water and acetonitrile with 0.1% formic acid were used as eluting solvents A and B. […] HRMS was carried out in a Bruker, Maxis Impact and Waters (Billerica, MA, USA) ACQUITY H-CLASS + UPLC/XevoG2 XS QTOF instrument. A 500 MHz Bruker AV III was used to record the ^1H NMR spectrum. The data were analyzed by MestReNova (version 8.1.1). ^1H NMR shifts are reported in units of ppm relative to tetramethyl silane. […]
Figure 3 Properties of the macrocycles. […] Fluorescence spectrum of 10 μM MC8 in methanol upon excitation with a wavelength of 278 nm.

Sequence of bovine serum albumin (BSA) (P02769 25-607): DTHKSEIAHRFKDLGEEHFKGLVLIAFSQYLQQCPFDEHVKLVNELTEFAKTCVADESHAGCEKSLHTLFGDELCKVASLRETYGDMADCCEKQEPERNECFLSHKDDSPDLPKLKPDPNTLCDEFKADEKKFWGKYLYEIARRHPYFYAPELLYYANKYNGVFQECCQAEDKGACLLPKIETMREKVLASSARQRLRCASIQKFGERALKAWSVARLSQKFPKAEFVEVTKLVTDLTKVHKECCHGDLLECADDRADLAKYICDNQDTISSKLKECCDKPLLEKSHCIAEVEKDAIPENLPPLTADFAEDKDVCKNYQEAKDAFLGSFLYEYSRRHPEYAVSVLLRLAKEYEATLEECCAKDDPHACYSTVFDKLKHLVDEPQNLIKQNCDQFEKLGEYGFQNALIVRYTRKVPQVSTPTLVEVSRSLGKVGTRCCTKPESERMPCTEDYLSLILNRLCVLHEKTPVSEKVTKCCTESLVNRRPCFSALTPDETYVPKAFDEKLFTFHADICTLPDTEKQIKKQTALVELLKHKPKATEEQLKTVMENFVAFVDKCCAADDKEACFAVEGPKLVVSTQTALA
Sequence of human serum albumin (HSA) (P02768 25-609): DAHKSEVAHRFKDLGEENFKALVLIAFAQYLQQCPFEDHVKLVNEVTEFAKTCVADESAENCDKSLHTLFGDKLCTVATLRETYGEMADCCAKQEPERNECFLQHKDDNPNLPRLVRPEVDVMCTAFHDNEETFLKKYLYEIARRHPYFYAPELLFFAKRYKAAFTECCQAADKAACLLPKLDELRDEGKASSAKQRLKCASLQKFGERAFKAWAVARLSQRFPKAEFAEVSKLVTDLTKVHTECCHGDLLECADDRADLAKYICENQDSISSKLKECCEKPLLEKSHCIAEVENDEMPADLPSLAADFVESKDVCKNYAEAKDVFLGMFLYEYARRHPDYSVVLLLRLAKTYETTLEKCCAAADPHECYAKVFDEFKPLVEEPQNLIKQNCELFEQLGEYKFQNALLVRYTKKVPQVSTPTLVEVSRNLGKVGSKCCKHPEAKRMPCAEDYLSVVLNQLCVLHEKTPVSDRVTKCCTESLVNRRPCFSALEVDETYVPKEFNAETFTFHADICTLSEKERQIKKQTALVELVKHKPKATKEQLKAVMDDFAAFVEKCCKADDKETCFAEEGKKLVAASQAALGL

In the case of `CCCN1CCOCc2cn(nn2)CCNCCn2cc(nn2)C1` [MC1], in series [1], the “Extent of binding with BSA, in words” value is on record as “moderate binding” and the “Binding Constant, BSA” value was 4600 M⁻¹. Also, the “Binding Constant, HSA” value in series [2] came to 4200 M⁻¹.
In the same order, the values of `CC(C)N1CCOCc2cn(nn2)CCNCCn2cc(nn2)C1` [MC2] are “moderate binding”, 4000 M⁻¹ and 4400 M⁻¹.
The corresponding values for `c1c2nnn1CCNCCn1cc(nn1)CN(C1CCCCC1)CCOC2` [MC3] are “moderate binding”, 4200 M⁻¹ and 3500 M⁻¹.
With `CCN(CC)C(=O)CN1CCOCc2cn(nn2)CCNCCn2cc(nn2)C1` [MC4], in series [1], the “Extent of binding with BSA, in words” value was “moderate binding” and the “Binding Constant, BSA” value stood at 9100 M⁻¹. In addition, in series [2], the “Extent of interaction with HSA, in words” value is “greater extent of interaction” and the “Binding Constant, HSA” value is 8400 M⁻¹.
Turning to `CN1CCN(C)Cc2cn(nn2)CCNCCn2cc(nn2)C1` [MC5], in series [1], the “Extent of binding with BSA, in words” value is “negligible binding” and the “Binding Constant, BSA” value is 1400 M⁻¹. Moreover, the “Binding Constant, HSA” value in series [2] amounted to 3200 M⁻¹.
`c1ccc(CN2CCN(Cc3ccccc3)Cc3cn(nn3)CCNCCn3cc(nn3)C2)cc1` [MC6]: in series [1], the “Extent of binding with BSA, in words” value is on record as “negligible binding” and the “Binding Constant, BSA” value was found to be 800 M⁻¹. In series [2], the “Extent of interaction with HSA, in words” value was “lowest” and the “Binding Constant, HSA” value was 930 M⁻¹. In addition, the “Hydrophilicity/hydrophobicity inferred from RP-HPLC retention time” value (from here on “Hydrophilicity/hydrophobicity inferred”) in series [3] is “hydrophobic”.
As to `c1c2nnn1CCNCCn1cc(nn1)COCCCCCCCCCCCCOC2` [MC7], in series [1], the “Extent of binding with BSA, in words” value is recorded as “highest binding” and the “Binding Constant, BSA” value amounted to 27100 M⁻¹. Besides, in series [2], the “Extent of interaction with HSA, in words” value was “highest interaction and quenching”; the “Binding Constant, HSA” value stood at 15800 M⁻¹. Moreover, the “Hydrophilicity/hydrophobicity inferred” value in series [3] was “hydrophilic”.
For `c1ccc2cc(CN3CCOCc4cn(nn4)CCNCCn4cc(nn4)COCC3)ccc2c1` [MC8], in series [3], the “Hydrophilicity/hydrophobicity inferred” value is reported as “hydrophobic”.
